Source: patent US6465660B1, “Isoindoloindolone compounds” (Les Laboratoires Servier, priority 2001, dated 2002)
pIC50: −log10 of the molar value.

Biological target: T1, MT3 sites (Mesocricetus auratus, UniProt A0ABM2YAB8)
T1 construct: carried out on hamster brain membranes using 2-[^125I] iodomelatonin as radioligand; from tissue; host or cells: hamster brain membranes
T1 sequence (A0ABM2YAB8 1-231): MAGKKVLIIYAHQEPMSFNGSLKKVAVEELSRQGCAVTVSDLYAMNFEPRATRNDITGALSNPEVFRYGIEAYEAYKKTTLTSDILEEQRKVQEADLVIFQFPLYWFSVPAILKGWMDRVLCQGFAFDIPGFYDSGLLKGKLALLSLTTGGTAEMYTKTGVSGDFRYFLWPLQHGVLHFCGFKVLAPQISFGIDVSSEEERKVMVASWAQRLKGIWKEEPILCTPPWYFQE
Assay: Study of binding to melatonin MT3 binding sites
Conditions: hamster brain membranes, 2-[125I] iodomelatonin radioligand, 30 minutes, 4° C.
Protocol: Binding to MT3 sites is characterised by remarkably rapid association and dissociation kinetics and by tissue localisation (brain).
The experiments of binding to MT3 sites are carried out on hamster brain membranes using 2-[^125I] iodomelatonin as radioligand in accordance with the protocol described by P. Paul et al. (J. Pharmacol. Exp. Ther. 1999 290, 334). The membranes are incubated for 30 minutes with 2-[^125I] iodomelatonin at a temperature of 4° C. and at different concentrations of the compounds to be tested. Following incubation, the membranes are rapidly filtered and then washed with cold buffer using a filtration system. The radioactivity retained is measured using a scintillation counter.

## COc1ccc2[nH]cc(CCNC(C)=O)c2c1 [melatonin, N-acetyl-5-methoxytryptamine]
  pIC50: 7.35
